PMC11855827, “High-Throughput Screening of Five Compound Libraries for Anthelmintic Activity and Toxicity Leads to the Discovery of Two Flavonoid Compounds” (International Journal of Molecular Sciences, 2025)
Read-outs that look alike come from different tables or passages of the source.

System: C. elegans
Assay: microbe, parasite or virus in culture
Settings: Caenorhabditis elegans
[1] = 0 h, read-out: Percentage of motility inhibition 0 h, Table S2, C. elegans SS assay, 110 μM, 0 h, averages of 4 data points
[2] = 24 h, read-out: Percentage of motility inhibition 24 h, Table S2, C. elegans SS assay, 110 μM, 24 h, averages of 4 data points
[3] = 0 h, read-out: Percentage of motility inhibition 0 h
[4] = 24 h, read-out: Percentage of motility inhibition 24 h

Compound	inhibition at 110 µM [1]	inhibition at 110 µM [2]	further results
C[C@@H]1O[C@@H](OC[C@H]2O[C@@H](Oc3cc(O)c4c(=O)cc(-c5ccc(O)cc5)oc4c3)[C@H](O)[C@@H](O)[C@@H]2O)[C@H](O)[C@H](O)[C@H]1O [Isorhoifolin]	0%	20%	–
Nc1ncnc2[nH]cnc12 [Adenine]	–	–	inhibition at 110 µM [3]: 0%; inhibition at 110 µM [4]: 3%
CN1CCCN=C1/C=C/c1cccs1 [Pyrantel pamoate, reference compound]	–	–	inhibition at 110 µM (0 h, read-out: Inhibition (%) 110 μM (0 h), C. elegans L4 motility, 110 μM, 0 h, mean ± SD of four experiments): 94%; inhibition at 110 µM (24 h, read-out: Inhibition (%) 110 μM (24 h), C. elegans L4 motility, 110 μM, 24 h, mean ± SD of four experiments): 18 ± 18%
C=CC1=C(C)c2cc3[nH]c(cc4nc(cc5[nH]c(cc1n2)c(C)c5CCC(=O)O)C(CCC(=O)O)=C4C)c(C)c3C=C [Protoporphyrin IX]	3%	17%	–
CC(C)=CC/C=C(\C)[C@H]1CC[C@]2(C)[C@@H]1[C@H](O)C[C@@H]1[C@@]3(C)CC[C@H](O[C@@H]4O[C@H](CO)[C@@H](O)[C@H](O)[C@H]4O[C@@H]4O[C@H](CO)[C@@H](O)[C@H](O)[C@H]4O)C(C)(C)[C@@H]3CC[C@]12C [Ginsenoside Rg5]	0%	2%	–
C[C@@H]1CCC=C2C(=O)C[C@H]3OOC(C)(C)[C@H]3[C@]21C [Nardosinone]	0%	13%	–
C[C@H]1O[C@@H](O[C@H]2[C@@H](O)C[C@H](O[C@H]3[C@@H](O)C[C@H](O[C@H]4CC[C@@]5(C)[C@H](CC[C@@H]6[C@@H]5CC[C@]5(C)[C@@H](C7=CC(=O)OC7)CC[C@]65O)C4)O[C@@H]3C)O[C@@H]2C)C[C@H](O)[C@@H]1O [Digitoxin]	0%	3%	–
C[C@H](Cc1ccc(O)c(O)c1)[C@@H](C)Cc1ccc(O)c(O)c1 [Masoprocol]	7%	17%	–
O=Cc1ccc[nH]1 [Pyrrole‐2‐carboxaldehyde]	0%	6%	–
Cc1cccc(C)c1NC(=O)c1ccccc1C(=O)O [Ftaxilide]	18%	10%	–
CC(=O)O[C@@H]1C[C@H]2C(C)(C)C(=O)C=C[C@]2(C)[C@H]2CC[C@@]3(C)[C@H](c4ccoc4)C(=O)[C@H]4O[C@]43[C@@]21C [Epoxyazadiradione]	19%	47%	–
O=c1cc(-c2ccc(O)cc2)oc2cc(O)c(O)c(O)c12 [Scutellarein]	–	–	inhibition at 110 µM [3]: 49%; inhibition at 110 µM [4]: 3%
Cc1cc2cc3c(C)cc(=O)oc3c(C)c2o1 [Trioxsalen]	6%	7%	–
CC(=O)[C@H]1CC[C@H]2[C@@H]3CCC4=CC(=O)CC[C@]4(C)[C@H]3CC[C@]12C [Progesterone]	0%	12%	–
CC(C)(C)NCC(O)c1cc(O)cc(O)c1 (stereo not drawn) [Terbutaline]	9%	2%	–
CC1=C[C@H]2[C@@]3(O)[C@H](C)[C@@H](O)[C@]4(O)[C@H]([C@@H]3C=C(CO)C[C@]2(O)C1=O)C4(C)C [Phorbol]	0%	6%	–
CC(C)OC(=O)[C@H](C)N[P@](=O)(CO[C@H](C)Cn1cnc2c(N)ncnc21)Oc1ccccc1 [GS‐7340]	–	–	inhibition at 110 µM [3]: 11%; inhibition at 110 µM [4]: 1%
COc1ccc2c(c1OC)C(=O)O[C@@H]2[C@H]1c2cc3c(cc2CCN1C)OCO3 [Hydrastine]	0%	19%	–
O=C(CO)[C@@H](O)[C@H](O)[C@H](O)CO [Fructose]	0%	3%	–
C[C@H]1[C@H](C)CC[C@]2(C(=O)O)CC[C@]3(C)C(=CC[C@@H]4[C@@]5(C)C[C@@H](O)[C@H](O)C(C)(C)[C@@H]5CC[C@]43C)[C@H]12 [Corosolic acid]	23%	34%	–
COc1cc(O)c(CC=C(C)C)c(O)c1C(=O)/C=C/c1ccc(O)cc1 [Xanthohumol]	23%	13%	–
C[C@@H]1C[C@@H]([C@H](O)CC2CC(=O)NC(=O)C2)C(=O)[C@@H](C)C1 [Cycloheximide]	17%	0%	–
N[C@@H](CS)C(=O)O [L-Cysteine]	4%	7%	–
C[C@H]1[C@H](C)CC[C@]2(C(=O)O)CC[C@]3(C)C(=CC[C@@H]4[C@@]5(C)CCC(=O)C(C)(C)[C@@H]5CC[C@]43C)[C@H]12 [Ursonic acid]	–	–	inhibition at 110 µM [3]: 18%; inhibition at 110 µM [4]: 23%
CC1COc2c(N3CCN(C)CC3)c(F)cc3c(=O)c(C(=O)O)cn1c23 (stereo not drawn) [Ofloxacin]	2%	0%	–
CC1(C)[C@H](C(=O)O)N2C(=O)C[C@H]2S1(=O)=O [Sulbactam]	–	–	inhibition at 110 µM [3]: 1%; inhibition at 110 µM [4]: 9%
O=C1C[C@@H](c2ccccc2)Oc2cc(O)cc(O)c21 [Pinocembrin]	44%	5%	–

Compound	inhibition at 110 µM [1]	inhibition at 110 µM [2]	further results
COc1nccnc1NS(=O)(=O)c1ccc(N)cc1 [Sulfalene]	2%	15%	–
COc1cc([C@H]2Oc3cc([C@H]4Oc5cc(O)cc(O)c5C(=O)[C@@H]4O)ccc3O[C@@H]2CO)ccc1O [Silybin A]	22%	20%	–
CC1CCc2c(N3CCC(O)CC3)c(F)cc3c(=O)c(C(=O)O)cn1c23 (stereo not drawn) [Nadifloxacin]	0%	0%	–
C[C@@H]1C(=O)O[C@H]2C[C@@]34[C@H]5C[C@@H](C(C)(C)C)[C@]36[C@@H](OC(=O)[C@@H]6O)O[C@@]4(C(=O)O5)[C@]21O [Ginkgolide A]	2%	8%	–
COC(=O)[C@@]12OC[C@]34[C@H]([C@@H](O)[C@@H]1O)[C@@]1(C)CC(=O)C(O)=C(C)[C@@H]1C[C@H]3OC(=O)[C@H](OC(=O)/C=C(\C)C(C)C)[C@@H]24 [Bruceantin]	24%	69%	–
C[C@@H]1O[C@@H](O[C@H]2C(=O)c3c(O)cc(O)cc3O[C@@H]2c2ccc(O)c(O)c2)[C@H](O)[C@H](O)[C@H]1O [Astilbin]	–	–	inhibition at 110 µM [3]: 31%; inhibition at 110 µM [4]: 0%
COc1cc(NCc2ccc3nc(N)nc(N)c3c2C)cc(OC)c1OC [Trimetrexate]	15%	0%	–
C=C[C@@]1(C)CC(=O)[C@]2(O)[C@@]3(C)[C@@H](O)CCC(C)(C)[C@@H]3[C@H](O)[C@H](OC(C)=O)[C@@]2(C)O1 [Forskolin]	0%	2%	–
COc1c2occc2cc2ccc(=O)oc12 [Methoxsalen]	23%	5%	–
C[C@]1(Cn2ccnn2)[C@H](C(=O)O)N2C(=O)C[C@H]2S1(=O)=O [Tazobactam]	16%	21%	–
C=CC(=C)CCC=C(C)C [Myrcene]	8%	23%	–
COc1ccc2c3c1O[C@H]1C[C@@H](O)CC[C@]31CCN(C)C2 [Lycoramine]	0%	0%	–
C=C(C)[C@@H]1CC[C@]2(C)CC[C@]3(C)[C@H](CC[C@@H]4[C@@]5(C)CCC(=O)C(C)(C)[C@@H]5CC[C@]43C)[C@@H]12 [Lupenone]	25%	17%	–
N#CC(c1ccc(Cl)cc1)c1c(Cl)cc(-n2ncc(=O)[nH]c2=O)cc1Cl (stereo not drawn) [Diclazuril]	28%	44%	–
OCc1c[nH]c2ccccc12 [Indole‐3‐carbinol]	0%	18%	–
C/C1=C\C[C@]2(C(C)C)CC[C@@](C)(O2)[C@@H](O)CC/C(C)=C/CC1 [Incensole]	2%	29%	–
O=c1c(O)c(-c2ccccc2)oc2ccccc12 [Flavonol]	2%	10%	–
C=C1C(=O)[C@@]23[C@@H]4OC5O[C@@]2(O)[C@@H](O)[C@@H]2C(C)(C)CC[C@@H](O)[C@]52[C@@H]3CC[C@@H]14 [Ponicidin]	4%	0%	–
CC(C)N1CCN(c2ccc(OCC3COC(Cn4cncn4)(c4ccc(Cl)cc4Cl)O3)cc2)CC1 (stereo not drawn) [Terconazole]	26%	3%	–
COc1cc2c(cc1OC)-c1c(C)c3ccc(OC)c(OC)c3c[n+]1CC2 [Dehydrocorydaline]	4%	0%	–
Nc1ccc(S(N)(=O)=O)cc1 [Sulfanilamide]	21%	7%	–
COc1cc(-c2oc3cc(O)cc(O)c3c(=O)c2O[C@@H]2O[C@H](CO[C@@H]3O[C@@H](C)[C@H](O)[C@@H](O)[C@H]3O)[C@@H](O)[C@H](O)[C@H]2O)ccc1O [Narcissin]	42%	25%	–
COC(=O)C1=CO[C@@H](O[C@@H]2O[C@H](CO)[C@@H](O)[C@H](O)[C@H]2O)[C@@H]2C(CO)=CC[C@H]12 [Geniposide]	0%	0%	–
O=C(C[C@H]1NCCC[C@@H]1O)Cn1cnc2ccccc2c1=O [Febrifugine]	0%	0%	–
CC(C)=CCC[C@H](C(=O)O)[C@H]1CC[C@]2(C)C3=C(CC[C@@]12C)[C@@]1(C)CCC(=O)C(C)(C)[C@H]1CC3 [β-Elemonic acid]	23%	28%	–
CC[C@]12CCCN3CCc4c(n(c5ccccc45)C(=O)C1)[C@@H]32 [Vinburnine]	0%	–	–
